The record followed here is article PMC11792831, “Design and synthesis of doublecortin-like kinase 1 inhibitors and their bioactivity evaluation” (Journal of Enzyme Inhibition and Medicinal Chemistry, 2023).

One data set deals with T1, DCLK1 (Homo sapiens, UniProt O15075).
T1 construct: purchased Eurofins (Belgium), contract assay service
T1 sequence (O15075 1-740): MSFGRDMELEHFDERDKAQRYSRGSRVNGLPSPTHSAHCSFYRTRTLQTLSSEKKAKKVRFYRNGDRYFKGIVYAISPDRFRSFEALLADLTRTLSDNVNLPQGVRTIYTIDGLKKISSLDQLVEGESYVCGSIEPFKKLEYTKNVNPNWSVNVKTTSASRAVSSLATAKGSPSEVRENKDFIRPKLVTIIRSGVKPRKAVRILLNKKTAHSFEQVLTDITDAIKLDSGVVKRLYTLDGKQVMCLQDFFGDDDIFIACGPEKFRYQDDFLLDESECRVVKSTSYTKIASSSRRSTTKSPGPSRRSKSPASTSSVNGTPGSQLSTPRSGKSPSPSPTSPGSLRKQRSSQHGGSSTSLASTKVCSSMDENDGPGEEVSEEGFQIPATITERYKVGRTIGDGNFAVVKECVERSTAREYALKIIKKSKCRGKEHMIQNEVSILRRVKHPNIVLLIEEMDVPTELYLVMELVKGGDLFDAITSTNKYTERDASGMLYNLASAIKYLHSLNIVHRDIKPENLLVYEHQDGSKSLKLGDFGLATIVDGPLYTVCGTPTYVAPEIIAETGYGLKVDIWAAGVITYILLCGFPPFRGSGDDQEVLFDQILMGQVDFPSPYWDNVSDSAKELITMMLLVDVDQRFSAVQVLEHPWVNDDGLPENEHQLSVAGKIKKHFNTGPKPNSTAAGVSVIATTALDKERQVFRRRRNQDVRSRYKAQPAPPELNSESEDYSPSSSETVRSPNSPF
The experiment in a line: In vitro DCLK1 kinase activity assay (Eurofins). The conditions noted are these: for Selectivity (IC50 of DCLK1/IC50 of LRRK2): ratio of IC50 values; for Selectivity (DCLK1 activity/LRRK2 activity): ratio of remaining activities at 1 uM; for IC50: read-out: IC50 of DCLK1; for activity at 1 µM: remaining kinase activity at 1 uM compound, 100% = no inhibition, 0% = complete inhibition, read-out: DCLK1 activity (%). The data set is classed as biochemical. The source says:
(§1) Eurofins (Belgium) conducted in vitro DCLK1 and LRRK2 kinase activity assays. Compounds were sent as dry powders to Eurofins.

The target in a further data set is T2, LRRK2 (Homo sapiens, UniProt Q5S007).
T2 construct: purchased Eurofins (Belgium), contract assay service
The data set is described as follows: In vitro LRRK2 kinase activity assay (Eurofins). The data set is classed as biochemical. The note with it: for activity at 1 µM: remaining kinase activity at 1 uM compound, 100% = no inhibition, 0% = complete inhibition. As for the experimental part:
All compounds were tested for their kinase inhibitory activity at the concentration of 1 μM. […] Compounds with high activity or good selectivity were selected for further IC50 determination (Table 2).
as §1

The test system of another data set is HCT116. The experiment in a line: In vitro cytotoxicity / anti-proliferation assay (CCK8). The data set is classed as cell-based. The conditions noted are these: Homo sapiens, HCT-116, colorectal cancer cell line HCT116, 72 h. The procedure:
To determine whether DCLK1 was required for tumour cell proliferation, the cytotoxicity of compounds was evaluated in colorectal cancer cell line HCT116. HCT116 was treated with compounds for 72 h, and the cell viability was determined using CCK8 assay (Figure 4). The antiproliferative effects of most compounds on HCT116 were correlated with their DCLK1 inhibitory activities, except for compounds D1 and D2. The poor cytotoxicity of compounds D1 and D2 may be attributed to their poor cell membrane permeability due to the negatively charged carboxylates. […] Overall, targeting DCLK1 inhibited the proliferation of HCT116, indicating the importance of DCLK1 in tumour growth.
A 96-well plate (3599, Corning, USA) was inoculated with 100 μL of complete medium containing 10 000 cells, and the experimental, control, and blank groups were established. Three parallel wells were used per concentration. After 10 h, media from the experimental and control groups were replaced with a complete medium containing the indicated concentration of the compound. Cells were incubated for 72 h before 10 μL of CCK8 reagent (CA1210, Solarbio, China) was added to each well and incubated for 1 h. The absorbance at 450 nm was measured with a microplate reader (Tecan, Switzerland). The IC50 was determined using GraphPad Prism 8 and nonlinear regression curve fitting.

T2 sequence (Q5S007 whole entry): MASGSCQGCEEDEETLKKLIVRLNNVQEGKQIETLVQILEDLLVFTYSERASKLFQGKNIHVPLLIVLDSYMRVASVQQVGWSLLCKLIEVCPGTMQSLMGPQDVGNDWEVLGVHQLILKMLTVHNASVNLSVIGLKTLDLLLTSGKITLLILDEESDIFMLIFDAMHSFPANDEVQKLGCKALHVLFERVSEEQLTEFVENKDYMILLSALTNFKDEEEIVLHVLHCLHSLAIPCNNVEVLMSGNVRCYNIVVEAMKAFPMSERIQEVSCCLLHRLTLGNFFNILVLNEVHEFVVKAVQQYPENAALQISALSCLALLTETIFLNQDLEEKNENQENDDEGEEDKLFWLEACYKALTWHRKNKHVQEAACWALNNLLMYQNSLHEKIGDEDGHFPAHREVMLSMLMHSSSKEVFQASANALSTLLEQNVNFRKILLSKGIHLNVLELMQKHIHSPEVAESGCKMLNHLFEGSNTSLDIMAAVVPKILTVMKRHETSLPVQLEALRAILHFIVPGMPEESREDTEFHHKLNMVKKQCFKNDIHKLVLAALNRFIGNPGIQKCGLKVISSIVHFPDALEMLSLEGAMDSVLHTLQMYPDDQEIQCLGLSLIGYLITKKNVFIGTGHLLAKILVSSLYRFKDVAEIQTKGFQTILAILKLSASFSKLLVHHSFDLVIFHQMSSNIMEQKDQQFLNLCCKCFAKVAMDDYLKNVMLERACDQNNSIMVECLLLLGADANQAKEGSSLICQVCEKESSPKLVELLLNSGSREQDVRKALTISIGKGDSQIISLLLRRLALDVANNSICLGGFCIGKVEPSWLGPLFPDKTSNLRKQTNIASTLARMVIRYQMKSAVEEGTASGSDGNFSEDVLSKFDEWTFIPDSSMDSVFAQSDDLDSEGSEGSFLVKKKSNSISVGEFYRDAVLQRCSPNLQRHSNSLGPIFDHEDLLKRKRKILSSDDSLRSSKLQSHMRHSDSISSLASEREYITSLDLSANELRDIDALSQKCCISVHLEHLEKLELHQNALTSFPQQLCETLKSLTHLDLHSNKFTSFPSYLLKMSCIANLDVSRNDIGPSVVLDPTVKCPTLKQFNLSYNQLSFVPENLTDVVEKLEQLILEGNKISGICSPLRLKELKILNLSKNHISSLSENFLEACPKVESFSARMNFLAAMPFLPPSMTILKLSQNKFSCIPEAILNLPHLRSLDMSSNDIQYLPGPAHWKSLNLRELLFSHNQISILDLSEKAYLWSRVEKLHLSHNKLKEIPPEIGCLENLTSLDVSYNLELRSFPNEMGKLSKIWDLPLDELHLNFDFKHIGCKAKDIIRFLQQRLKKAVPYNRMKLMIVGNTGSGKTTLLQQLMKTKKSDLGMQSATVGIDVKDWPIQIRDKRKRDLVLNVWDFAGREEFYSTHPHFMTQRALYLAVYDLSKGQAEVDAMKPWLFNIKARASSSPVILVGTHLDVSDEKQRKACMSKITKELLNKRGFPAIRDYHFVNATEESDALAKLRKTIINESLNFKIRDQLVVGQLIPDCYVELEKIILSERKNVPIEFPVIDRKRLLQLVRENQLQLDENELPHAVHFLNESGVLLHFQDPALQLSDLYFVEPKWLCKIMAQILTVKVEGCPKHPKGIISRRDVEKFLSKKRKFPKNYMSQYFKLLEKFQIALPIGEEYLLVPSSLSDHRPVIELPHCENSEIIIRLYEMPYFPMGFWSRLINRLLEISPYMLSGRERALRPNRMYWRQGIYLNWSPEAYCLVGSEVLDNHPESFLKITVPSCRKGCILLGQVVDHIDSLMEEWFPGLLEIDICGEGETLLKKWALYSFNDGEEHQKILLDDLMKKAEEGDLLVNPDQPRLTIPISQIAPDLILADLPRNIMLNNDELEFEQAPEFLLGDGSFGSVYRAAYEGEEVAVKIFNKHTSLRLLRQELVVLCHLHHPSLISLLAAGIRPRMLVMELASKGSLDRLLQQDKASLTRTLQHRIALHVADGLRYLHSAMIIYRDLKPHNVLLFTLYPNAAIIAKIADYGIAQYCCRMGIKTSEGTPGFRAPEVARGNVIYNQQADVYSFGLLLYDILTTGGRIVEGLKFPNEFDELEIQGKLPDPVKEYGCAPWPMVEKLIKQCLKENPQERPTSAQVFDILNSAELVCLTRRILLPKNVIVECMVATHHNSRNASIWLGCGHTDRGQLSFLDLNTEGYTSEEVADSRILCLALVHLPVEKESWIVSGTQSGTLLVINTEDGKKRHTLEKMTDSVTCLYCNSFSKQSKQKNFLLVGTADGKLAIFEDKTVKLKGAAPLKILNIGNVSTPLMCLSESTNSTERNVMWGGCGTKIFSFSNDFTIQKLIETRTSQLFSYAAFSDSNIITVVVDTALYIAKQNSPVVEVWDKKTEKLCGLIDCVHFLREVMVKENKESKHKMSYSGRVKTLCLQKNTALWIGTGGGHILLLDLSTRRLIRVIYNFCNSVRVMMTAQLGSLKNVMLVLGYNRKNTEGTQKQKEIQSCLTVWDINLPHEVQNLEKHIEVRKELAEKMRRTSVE

Broadly, the IC50 is the concentration that gives 50% inhibition. As a reminder, the melting point is the temperature of the solid-liquid transition. Take `CCOc1cc(N2CCC(O)CC2)ccc1Nc1ncc2c(n1)N(C)c1cccc(F)c1C(=O)N2C` [Compound A9, 2-((2-Ethoxy-4-(4-hydroxypiperidin-1-yl)phenyl)amino)-7-fluoro-5,11-dimethyl-5,11-dihydro-6H-benzo[e]pyrimido[5,4-b][1,4]diazepin-6-one]: the melting point was 174 to 175 °C. At DCLK1, the “Selectivity (IC50 of DCLK1/IC50 of LRRK2)” value is listed as less than 0.34, the “Selectivity (DCLK1 activity/LRRK2 activity)” value worked out at 0.34, the IC50 amounted to 338 nM and the activity at 1 µM amounted to 17%. Besides, at LRRK2, the 50% inhibitory concentration (IC50) is more than 1000 nM and the activity at 1 µM was 50%. The concentration for half-maximal inhibition (IC50) in the data set with HCT116 was determined as 20500 nM.

On to `COc1cc(N2CCC(OC)CC2)ccc1Nc1ncc2c(n1)N(C)c1ccccc1C(=O)N2C` [Compound D12, 2-((2-Methoxy-4-(4-methoxypiperidin-1-yl)phenyl)amino)-5,11-dimethyl-5,11-dihydro-6H-benzo[e]pyrimido[5,4-b][1,4]diazepin-6-one], for which the melting point was 179 to 180 °C. Also, at DCLK1, the “Selectivity (IC50 of DCLK1/IC50 of LRRK2)” value was 0.47, the “Selectivity (DCLK1 activity/LRRK2 activity)” value came out at 0.50, the 50% inhibitory concentration (IC50) came to 47 nM and the activity at 1 µM came to 5%. For the same compound, on LRRK2, inhibition was half-maximal at 99 nM (IC50) and the activity at 1 µM turned out to be 10%. In the data set on HCT116, this compound displayed an IC50 of 10100 nM.

In the case of `COc1cc(N2CCCCC2)ccc1Nc1ncc2c(n1)N(C)c1ccccc1C(=O)N2C` [Compound D11, 2-((2-Methoxy-4-(piperidin-1-yl)phenyl)amino)-5,11-dimethyl-5,11-dihydro-6H-benzo[e]pyrimido[5,4-b][1,4]diazepin-6-one], the melting point was in the range of 166 to 167 °C. For the same compound, on DCLK1, the “Selectivity (IC50 of DCLK1/IC50 of LRRK2)” value came to 0.38, the “Selectivity (DCLK1 activity/LRRK2 activity)” value is 0.61, the concentration for half-maximal inhibition (IC50) is 100 nM and the activity at 1 µM turned out to be 11%. Moreover, at LRRK2, half-maximal inhibition (IC50) was put at 266 nM and the activity at 1 µM worked out at 18%. In the data set on HCT116, half-maximal inhibition (IC50) was put at 11500 nM.

Regarding `CCOc1cc(N2CC[S+]([O-])CC2)ccc1Nc1ncc2c(n1)N(C)c1ccccc1C(=O)N2C` [Compound D5, 2-((2-ethoxy-4-(1-Oxidothiomorpholino)phenyl)amino)-5,11-dimethyl-5,11-dihydro-6H-benzo[e]pyrimido[5,4-b][1,4]diazepin-6-one], the melting point was in the range of 163 to 164 °C. Further, at DCLK1, the “Selectivity (IC50 of DCLK1/IC50 of LRRK2)” value turned out to be 0.46, the “Selectivity (DCLK1 activity/LRRK2 activity)” value is on record as 0.57, the IC50 worked out at 146 nM and the activity at 1 µM was found to be 12%. For the same compound, on LRRK2, the IC50 is 320 nM and the activity at 1 µM is 21%. Also, the half-inhibitory concentration (IC50) in the data set with HCT116 stood at 10700 nM.

`CCOc1cc(N2CCC(O)CC2)ccc1Nc1ncc2c(n1)N(C)c1ccc(F)cc1C(=O)N2C` [Compound A6, 2-((2-Ethoxy-4-(4-hydroxypiperidin-1-yl)phenyl)amino)-8-fluoro-5,11-dimethyl-5,11-dihydro-6H-benzo[e]pyrimido[5,4-b][1,4]diazepin-6-one] returned a melting point of 166 to 167 °C. Moreover, on DCLK1, the “Selectivity (IC50 of DCLK1/IC50 of LRRK2)” value was less than 0.37, the “Selectivity (DCLK1 activity/LRRK2 activity)” value is recorded as 0.37, the IC50 was 365 nM and the activity at 1 µM is 19%. Moreover, at LRRK2, the IC50 is more than 1000 nM and the activity at 1 µM stood at 51%. 24700 nM corresponded to half-maximal inhibition with HCT116 (IC50).
